Source: US12552796B2, “EED inhibitor, and preparation method therefor and use thereof” (SHANGHAITECH UNIVERSITY, priority 2019, dated 2026)
Read-outs that look alike come from different tables or passages of the source.

Tests used:
WSU-DLCL2 cells = experiment: Cell proliferation assay, WSU-DLCL2; assay type: cell-based; settings: Homo sapiens
Description: (§1) Human B-cell non-Hodgkin's lymphoma cells WSU-DLCL2, Karpas422 and Pfeiffer were cultured in cell culture flasks in a sterile incubator with 95% relative humidity and 5% CO2 at 37° C. The medium was RPMI-1640 (Gibco, product No. 31800022) containing 15% fetal bovine serum (FBS, Gibco, product No. 10099141) and 0.1% penicillin/streptomycin solution (P/S). In order to assay the effects of compounds on cell proliferation, cells in exponential growth phase were seeded into a 12-well plate (Nunc, product No. 150628) with 1 mL of medium per well, wherein WSU-DLCL2 and Karpas422 were seeded at a density of 1×10^5 cells/well, and Pfeiffer was seeded at a density of 2×10^5 cells/well. At the same time, different concentrations of compounds were added to the wells that had seeded with cells (6 concentrations were set for each compound at 3-fold serial dilution), and the final concentration of DMSO was 0.1%. After that, the number of viable cells was determined by Vi-CELL (Beckman Coulter) for WSU-DLCL2 and Pfeiffer every 3 days, and for Karpas422 on days 4, 7, and 11, respectively. The cells counted each time were seeded into a new 12-well plate at the same density, and supplemented with fresh medium to 1 mL. Different concentrations of compounds were added at the same time. WSU-DLCL2 and Pfeiffer were cultured to the 9th day, and Karpas422 was cultured to the 14th day. Cell data were collected uniformly, and analyzed with GraphPad prisim5. Dose curves were fitted, and IC50 values of the assay compounds were obtained.

Karpas422 cells = experiment: Cell proliferation assay, Karpas422; assay type: cell-based; settings: Homo sapiens, KARPAS-422; Karpas422 cells, cultured to the 14th day; read-out: Anti-proliferation IC50
Description: as §1

[1] = system: cellular H3K27 methylation; experiment: Cellular H3K27 methylation assay (Western blot of H3K27me3 in HeLa cells); assay type: cell-based; settings: Homo sapiens, 72 h, read-out: PD IC50
[2] = Pharmacokinetic study in rats; assay type: in vivo, SD rats; settings: rat; for AUC(0-inf) / Cmax / Tmax / clearance / half-life / MRT inf: male, SD, plasma; for MRT inf: read-out: MRT0-∞
Description: Six SPF SD rats, male, weighing 180-220 g, were randomly divided into 2 groups with 3 rats in each group. The compounds of the present disclosure were administered by oral gavage (PO) and intravenous injection (IV), respectively, and the assay compounds were formulated with a vehicle (5% DMSO+10% Solutol+85% pH 4.65 Acetate buffer).
Dosage: 1 mg/kg for intravenous injection and 2 mg/kg for oral administration.
Dosing volume: 5 mL/kg for intravenous injection and 10 mL/kg for oral administration.
The oral administration group was fasted overnight (10-14 h) before the assay, and drank water freely. After 4 hours of administration, they were fed uniformly. They were weighed before administration, and the dosage was calculated according to the body weight.
Intravenous administration: 0.083, 0.25, 0.5, 1, 2, 4, 6, 8, 10 and 24 h after administration;
Oral gavage administration: 0.25, 0.5, 1, 2, 4, 6, 8, 10, 12 and 24 h after administration;
Blood was collected from the jugular vein of rats at the above set time points, about 0.2 mL each time. The blood was anticoagulated with heparin sodium, placed on ice after collection, and centrifuged within 1 hour to separate the plasma (centrifugation conditions: 6800 g, 6 minutes, 2-8° C.). Plasma samples were stored in a −80° C. freezer prior to analysis.
The concentration of each compound in rat plasma was determined by LC/MS/MS method.
Through the plasma drug concentration data at different time points, pharmacokinetic parameters were calculated using Phoenix WinNonlin 7.0, thereby providing parameters such as AUC0-t, AUC0-∞, MRT0-∞, Cmax, Tmax, and T1/2 and mean and standard deviation thereof.

[3] = WSUDLCL2, WSU-DLCL2 cells, cultured to the 9th day, read-out: Anti-proliferation IC50
[4] = HeLa cells, 3 days, H3K27me3 level by Western blot

Row | SMILES | IC50 [1, 4] [nM] | IC50 (WSU-DLCL2 cells; [3]) [nM] | other results
1 | CS(=O)(=O)c1ccc(-c2cnc(NCc3ccco3)n3cnnc23)cc1 [EED226, reference compound] | 220 | 131 | IC50 (Karpas422 cells): 123 nM
2 | CC(C)Oc1cnc(NCc2c(F)ccc3c2CCO3)n2cnnc12 [HJM-015] | 25.4 | 115 | 
3 | CN(C)C(=O)c1cnc(NCc2c(F)ccc3c2CCO3)n2cnnc12 [HJM-025] |  |  | IC50 (WSU-DLCL2 cells; WSUDLCL2, read-out: Anti-proliferation IC50): 26.4 nM; IC50 ([1]; HeLa): 43.3 nM
4 | O=C(c1cnc(NCc2c(F)ccc3c2CCO3)n2cnnc12)N1CCOCC1 [HJM-027] | 89.5 | 58 | 
5 | O=C(Nc1cnc(NCc2c(F)ccc3c2CCO3)n2cnnc12)c1ccccc1 [HJM-042] | 60.5 | 82 | 
6 | CC(F)C(=O)Nc1cnc(NCc2c(F)ccc3c2CCO3)n2cnnc12 (stereo not drawn) [HJM-072] | 30 | 120 | 
7 | COCCOCC(=O)Nc1cnc(NCc2c(F)ccc3c2CCO3)n2cnnc12 [HJM-084] | 84 | 86.9 | 
8 | Fc1ccc2c(c1CNc1ncc(OCC3CCO3)c3nncn13)CCO2 (stereo not drawn) [HJM-103] | 94.2 | 148 | 
9 | COc1ccc(OCCOc2cnc(NCc3c(F)ccc4c3CCO4)n3cnnc23)cc1 [HJM-127] | 108 |  | 
10 | Fc1ccc2c(c1CNc1ncc(OCCn3cncn3)c3nncn13)CCO2 [HJM-129] | 389 |  | 
11 | Cc1ccc(COc2cnc(NCc3c(F)ccc4c3CCO4)n3cnnc23)cn1 [HJM-130] | 104 |  | 
12 | Fc1ccc2c(c1CNc1ncc(OCc3cncnc3)c3nncn13)CCO2 [HJM-131] | 130 |  | 
13 | Fc1ccc2c(c1CNc1ncc(OCc3cnccn3)c3nncn13)CCO2 [HJM-132] | 123 |  | 
14 | Fc1ccc2c(c1CNc1ncc(OCc3cnco3)c3nncn13)CCO2 [HJM-134] | 159 |  | 
15 | CN1CCC(Oc2cnc(NCc3c(F)ccc4c3CCO4)n3cnnc23)C1=O (stereo not drawn) [HJM-135] | 286 |  | 
16 | CN1CC(Oc2cnc(NCc3c(F)ccc4c3CCO4)n3cnnc23)CC1=O (stereo not drawn) [HJM-136] | 394 |  | 
17 | Fc1ccc2c(c1CNc1ncc(OCc3ccccc3)c3nncn13)CCO2 [HJM-139] |  |  | IC50 ([1]; HeLa): 120 nM
18 | Fc1ccc2c(c1CNc1ncc(OCc3cccnc3)c3nncn13)CCO2 [HJM-140] | 21.4 |  | 
19 | Fc1ccc2c(c1CNc1ncc(OCc3ccncc3)c3nncn13)CCO2 [HJM-141] | 64.4 |  | 
20 | Cc1cccc(COc2cnc(NCc3c(F)ccc4c3CCO4)n3cnnc23)n1 [HJM-143] | 204 |  | 
21 | N#CCOc1cnc(NCc2c(F)ccc3c2CCO3)n2cnnc12 [HJM-145] | 32.8 | 47.3 | 
22 | O=C(COc1cnc(NCc2c(F)ccc3c2CCO3)n2cnnc12)C1CC1 [HJM-146] | 150 |  | 
23 | O=C(NCCOc1cnc(NCc2c(F)ccc3c2CCO3)n2cnnc12)C1CC1 [HJM-147] | 95.3 |  | 
24 | CNC(=O)COc1cnc(NCc2c(F)ccc3c2CCO3)n2cnnc12 [HJM-148] | 1090 |  | 
25 | CN(C)C(=O)COc1cnc(NCc2c(F)ccc3c2CCO3)n2cnnc12 [HJM-149] |  |  | IC50 ([1]; HeLa): 546 nM
26 | CN(C)C(=O)Oc1cnc(NCc2c(F)ccc3c2CCO3)n2cnnc12 [HJM-151] |  |  | IC50 ([1]; HeLa): 91.1 nM
27 | O=C(c1cnc(NCc2c(F)ccc3c2CCO3)n2cnnc12)N1CCC1 [HJM-153] | 93.2 |  | 

The remaining compounds from weak to strong by IC50 [1, 4], led by results:

Row | IC50 [1, 4] [nM] | SMILES | IC50 (WSU-DLCL2 cells; [3]) [nM] | other results
28 | 74.4 | CC(Oc1cnc(NCc2c(F)ccc3c2CCO3)n2cnnc12)c1cccnc1 (stereo not drawn) [HJM-133] |  | 
29 | 73.2 | COCCN(C)C(=O)c1cnc(NCc2c(F)ccc3c2CCO3)n2cnnc12 [HJM-152] | 106 | 
30 | 71.7 | Fc1ccc2c(c1CNc1ncc(OCCn3ccnc3)c3nncn13)CCO2 [HJM-144] |  | 
31 | 68 | CN1CC(Oc2cnc(NCc3c(F)ccc4c3CCO4)n3cnnc23)C1 [HJM-114] | 211 | 
32 | 64.7 | O=C(Nc1cnc(NCc2c(F)ccc3c2CCO3)n2cnnc12)C1CCCO1 (stereo not drawn) [HJM-037] | 115 | 
33 | 62 | Fc1ccc2c(c1CNc1ncc(OCCn3cccc3)c3nncn13)CCO2 [HJM-128] |  | 
34 | 62 | COCCOc1cnc(NCc2c(F)ccc3c2CCO3)n2cnnc12 [HJM-137] | 51.4 | 
35 | 57.7 | CC(Oc1cnc(NCc2c(F)ccc3c2CCO3)n2cnnc12)C1COC1 (stereo not drawn) [HJM-106] | 39.8 | 
36 | 54.3 | Fc1ccc2c(c1CNc1ncc(C3CCCO3)c3nncn13)CCO2 (stereo not drawn) [HJM-003] | 131 | 
37 | 54.3 | Fc1ccc2c(c1CNc1ncc(OC3COC3)c3nncn13)CCO2 [HJM-100] | 54.8 | 
38 | 49.8 | COCCCOc1cnc(NCc2c(F)ccc3c2CCO3)n2cnnc12 [HJM-138] | 43.2 | 
39 | 44.6 | CCOCCc1cnc(NCc2c(F)ccc3c2CCO3)n2cnnc12 [HJM-010] | 77.8 | 
40 | 39.8 | Fc1ccc2c(c1CNc1ncc(OCC3CCOCC3)c3nncn13)CCO2 [HJM-020] | 48.5 | 
41 | 39.7 | Fc1ccc2c(c1CNc1ncc(OCc3ccccn3)c3nncn13)CCO2 [HJM-142] |  | 
42 | 39.6 | O=C(CC1CC1)Nc1cnc(NCc2c(F)ccc3c2CCO3)n2cnnc12 [HJM-031] | 80.6 | 
43 | 39.5 | Fc1ccc2c(c1CNc1ncc(OCC3CCCO3)c3nncn13)CCO2 (stereo not drawn) [HJM-101] | 52.6 | 
44 | 39.3 | CN(C(=O)CC1CC1)c1cnc(NCc2c(F)ccc3c2CCO3)n2cnnc12 [HJM-073] | 29.4 | 
45 | 38.5 | Fc1ccc2c(c1CNc1ncc(OC(F)F)c3nncn13)CCO2 [HJM-150] |  | 
46 | 33.8 | COCCCc1cnc(NCc2c(F)ccc3c2CCO3)n2cnnc12 [HJM-011] | 86.3 | 
47 | 29.9 | CN(C)CCC(=O)Nc1cnc(NCc2c(F)ccc3c2CCO3)n2cnnc12 [HJM-082] | 124 | 
48 | 29.4 | Fc1ccc2c(c1CNc1ncc(OCC3CC3)c3nncn13)CCO2 [HJM-019] | 72 | 
49 | 29.4 | CC1(COc2cnc(NCc3c(F)ccc4c3CCO4)n3cnnc23)COC1 [HJM-105] | 35.4 | AUC(0-inf) ([2]; IV, 1 mg/kg): 1910 ng·h/mL; Cmax ([2]; IV, 1 mg/kg): 1600 ng/mL; Tmax ([2]; IV, 1 mg/kg): 0.08 h; clearance ([2]; IV, 1 mg/kg): 8.83 mL/min/kg; half-life ([2]; IV, 1 mg/kg): 1.82 h; MRT inf ([2]; IV, 1 mg/kg): 1.56 h; AUC(0-inf) ([2]; PO, 2 mg/kg): 1790 ng·h/mL; Cmax ([2]; PO, 2 mg/kg): 342 ng/mL; Tmax ([2]; PO, 2 mg/kg): 2.83 h; half-life ([2]; PO, 2 mg/kg): 1.41 h; MRT inf ([2]; PO, 2 mg/kg): 3.29 h; F ([2]; PO, 2 mg/kg): 47.22%
50 | 28.5 | COCC(=O)Nc1cnc(NCc2c(F)ccc3c2CCO3)n2cnnc12 [HJM-083] | 28 | 
51 | 26.7 | O=C(Nc1cnc(NCc2c(F)ccc3c2CCO3)n2cnnc12)C1CC1 [HJM-030] | 39.6 | AUC(0-inf) ([2]; IV, 1 mg/kg): 1230 ng·h/mL; Cmax ([2]; IV, 1 mg/kg): 1500 ng/mL; Tmax ([2]; IV, 1 mg/kg): 0.08 h; clearance ([2]; IV, 1 mg/kg): 13.6 mL/min/kg; half-life ([2]; IV, 1 mg/kg): 1.7 h; MRT inf ([2]; IV, 1 mg/kg): 1.02 h; AUC(0-inf) ([2]; PO, 2 mg/kg): 1450 ng·h/mL; Cmax ([2]; PO, 2 mg/kg): 394 ng/mL; Tmax ([2]; PO, 2 mg/kg): 0.42 h; half-life ([2]; PO, 2 mg/kg): 1.32 h; MRT inf ([2]; PO, 2 mg/kg): 2.93 h; F ([2]; PO, 2 mg/kg): 58.53%; IC50 (Karpas422 cells): 42.1 nM
52 | 26.3 | Fc1ccc2c(c1CNc1ncc(OC3CCC3)c3nncn13)CCO2 [HJM-017] | 113 | 
53 | 25.9 | O=C(CCC(F)(F)F)Nc1cnc(NCc2c(F)ccc3c2CCO3)n2cnnc12 [HJM-033] | 94.7 | 
54 | 15.3 | CCN(C(=O)C1CC1)c1cnc(NCc2c(F)ccc3c2CCO3)n2cnnc12 [HJM-079] | 36.8 | AUC(0-inf) ([2]; IV, 1 mg/kg): 857 ng·h/mL; Cmax ([2]; IV, 1 mg/kg): 750 ng/mL; Tmax ([2]; IV, 1 mg/kg): 0.08 h; clearance ([2]; IV, 1 mg/kg): 19.5 mL/min/kg; half-life ([2]; IV, 1 mg/kg): 0.92 h; MRT inf ([2]; IV, 1 mg/kg): 1.1 h; AUC(0-inf) ([2]; PO, 2 mg/kg): 706 ng·h/mL; Cmax ([2]; PO, 2 mg/kg): 222 ng/mL; Tmax ([2]; PO, 2 mg/kg): 0.42 h; half-life ([2]; PO, 2 mg/kg): 1.72 h; MRT inf ([2]; PO, 2 mg/kg): 2.94 h; F ([2]; PO, 2 mg/kg): 40.87%
